For 27 compounds, IC50 results are on record in PubChem BioAssay AID1361 (SRMLSC, 2008).

pIC50: −log10 of the molar value. Active and inactive are the calls of the source. The rule behind the calls is not given here. A value given as a limit tells only on which side of the number the result lay.

This experiment can be described thus: mitochondrial fusion inhibitors, confirmation, cell-based, chemical genetic, wild-type and mutant (AID 1361). The following applies: Cell-based mitochondrial fusion phenotype, imaging.
[1] abbreviates: mutant cells, measured here: mutant cell line IC50.

Consider `CCOc1ccc(Br)cc1C1C(C(=O)OC)=C(N)Oc2cc(N(C)C)ccc21` (centres undefined), for which the pIC50 reads like this: (WT cells) 4.93; under setting [1], less than 4.60.

As to `CCn1ccnc1CN1CCc2c([nH]c3ccccc23)C1CC(C)C` (centres undefined), the IC50 (WT cells) was > 25 µM (inactive). In addition, the pIC50 under setting [1] was less than 4.60.

`O=C1NC(Nc2nc3ccccc3s2)(C(F)(F)F)C(=O)N1C1CCCCC1` (centres undefined): the pIC50 was 4.70 (WT cells) and less than 4.60 under setting [1].

For `N#CC1=C(N)NC(SCC(=O)c2ccc(Br)cc2)=C(C#N)C12CCCCC2`, the pIC50 by setting is: (WT cells) 4.71; under setting [1], less than 4.60.

For `N#C/C(=C\c1cccc(NC(=O)c2ccccc2Cl)c1)C(=O)NCCc1ccccc1`, the negative-log IC50 (pIC50) (WT cells) was 4.96 and the negative logarithm of the IC50 (pIC50) under setting [1] is less than 4.60.

Regarding `O=C(COC(=O)CCCOc1ccc(Cl)cc1Cl)Nc1cccc(Cl)c1`, the IC50 (WT cells) is 24 µM (inactive). The negative-log IC50 (pIC50) under setting [1] is 4.64.

With `c1csc(C(c2nnnn2C2CCCC2)N2CCCC3(CCCCC3)C2)c1` (centres undefined), the negative logarithm of the IC50 (pIC50) reads like this: (WT cells) 5.31; under setting [1], less than 4.60.

For the compound `NC(=O)c1ccc(N2CCCCC2)c(N2C(=O)C3CC=CCC3C2=O)c1` (centres undefined), where the note is “WT cells”, the IC50 was > 25 µM (inactive). The same compound had a pIC50 under setting [1] of less than 4.60.

Regarding `COc1ccc(-c2noc(CSc3nnc(Cc4ccccc4)n3-c3ccc(Cl)cc3)n2)cc1`, the pIC50 is 4.79 (WT cells) and less than 4.60 under setting [1].

In the case of `O=C(COC(=O)c1ccc([N+](=O)[O-])s1)Nc1ncc(C(F)(F)F)cc1Cl`, the negative-log IC50 (pIC50) (WT cells) was 4.74 and the pIC50 under setting [1] is less than 4.60.

Consider `Cc1ccc(C(C)C)c(OCc2ccc(C(=O)N/N=C/c3ccc(O)cc3O)cc2)c1`, for which, where the note is “WT cells”, the IC50 was > 25 µM (inactive). Also, the negative logarithm of the IC50 (pIC50) under setting [1] is less than 4.60.

On to `O=C(CSc1ccccc1)NCc1cccnc1`, for which the IC50 (WT cells) was > 25 µM (inactive). The compound also had a pIC50 under setting [1] of less than 4.60.

On to `CCCC[C@@H]1C[C@H]1[C@@H](NC(=O)c1ccco1)c1ccc(Cl)cc1`, for which the negative logarithm of the IC50 (pIC50) was 4.67 (WT cells) and less than 4.60 under setting [1].

As for `CCC(C)(C)c1ccc(OCC(=O)N(C)C)c(C(C)(C)CC)c1`, the pIC50 by setting is: (WT cells) 4.68; under setting [1], less than 4.60.

For `C(=N\Nc1nc(Nc2ccccc2)nc(N2CCCCC2)n1)/c1ccco1`, the negative-log IC50 (pIC50) is 4.65 (WT cells) and less than 4.60 under setting [1].

Take `Cc1cccc(C(=O)NC(C(=O)Nc2nc(-c3ccccn3)cs2)C(C)C)c1` (centres undefined): the negative logarithm of the IC50 (pIC50) was 4.68 (WT cells) and less than 4.60 under setting [1].

With `COc1ccc(/C=N/N(Cc2ccccc2)c2ccccc2)cc1O`, the negative logarithm of the IC50 (pIC50) (WT cells) was 4.93 and the pIC50 under setting [1] is less than 4.60.

Consider `O=C(/C=C/Nc1cccc(C(F)(F)F)c1)C(F)(F)F`, for which the IC50 (WT cells) is > 25 µM (inactive). Under setting [1], this compound had a negative-log IC50 (pIC50) of less than 4.60.

Turning to `CC(c1ccccc1)N(CCC(c1ccccc1)C1CCOC(C)(C)C1)C(=O)c1ccco1` (centres undefined), the negative logarithm of the IC50 (pIC50) (WT cells) is 4.72 and the pIC50 under setting [1] is less than 4.60.

With `O=C(OC(c1ccc(NS(=O)(=O)c2ccccc2)cc1)(C(F)(F)F)C(F)(F)F)c1ccccc1`, the pIC50 reads like this: (WT cells) 4.74; under setting [1], less than 4.60.

For the compound `COc1cccc(-c2nc(OC(C)C)c3ccccc3n2)c1`, the IC50 (WT cells) was > 25 µM (inactive). This compound gave a negative-log IC50 (pIC50) under setting [1] of less than 4.60.

As to `N=c1c2c(n(Cc3ccc(F)cc3)c3c1CCC3)CCC2`, the pIC50 is 4.95 (WT cells) and less than 4.60 under setting [1].

For `O=c1[nH][nH]c(-c2ccccc2)c1C=Nc1ccccc1`, the IC50 (WT cells) is > 25 µM (inactive). Besides, the pIC50 under setting [1] is less than 4.60.

As for `COC(=O)c1ccccc1NC(=O)CNc1cc(Cl)ccc1N1CCOCC1`, the negative logarithm of the IC50 (pIC50) was 4.61 (WT cells) and less than 4.60 under setting [1].

Regarding `CC(C)C1OC(c2cccc(NC(=O)c3cccs3)c2)OCC1(C)C` (centres undefined), where the note is “WT cells”, the IC50 is > 25 µM (inactive). Under setting [1], this compound had a pIC50 of less than 4.60.

Regarding `Cc1cc(=O)n2[nH]c(-c3ccc(F)cc3)cc2n1`, the IC50 (WT cells) was > 25 µM (inactive). Under setting [1], the negative logarithm of the IC50 (pIC50) is less than 4.60.

Take `CCOc1ccc(NC(=S)NN(C)C(=S)Nc2ccc(OCC)cc2)cc1`: the IC50 (WT cells) is > 25 µM (inactive). Under setting [1], this compound had a negative logarithm of the IC50 (pIC50) of less than 4.60.

Broadly, the pIC50 is the negative decadic logarithm of the IC50, by convention in mol/L. A word on the IC50: it is the concentration that gives 50% inhibition.
